Consider one compound from patent US10039806B2, “Methods and compositions for treating antiprogestin-resistant cancers” (Fundación Sales, priority 2011, dated 2018).

One test concerns C4-HI cells. Nature of the test: (3H)-thymidine uptake, primary cultures of purified epithelial cells. It counts as cell-based, mouse. The settings on record: 48 h, with MPA; P<0.001. The method, then:
(§1) Epithelial cells and carcinoma-associated fibroblasts were separated by differential sedimentation and plated with 10% FCS. Carcinoma-associated fibroblasts were allowed to attach for 0.5 h and the epithelial cells for 24-48 h. The medium was replaced by fresh medium with 10% FCS; thereafter, it was changed every 2-3 days.
(§2) (3H)-thymidine-uptake was used as an indirect method to evaluate cell proliferation. In brief, cells were seeded into 96-well microplates. After attachment (24 h), the cells were incubated for 24 h with 1% steroid-stripped FCS and then for 48 h with the experimental solutions to be tested in 1% chFCS. Fifty percent of the medium was replaced with fresh medium every 24 h. The cells were incubated with 0.4 μCi of 3H-thymidine (specific activity: 20 Ci/mmol) for 24 h, trypsinized, and harvested in a cell harvester. In experiments in which 5azadC was used, the experiments were carried out using proliferating cells (presence of 10% FCS) to guarantee the effect of the demethylating agent. Three different experiments were made using octuplicates, and the means and standard deviations of one representative experiment of the other three are shown. The results are expressed as the proliferation index (cpm 30 experimental group/cpm control; mean±SEM).

The subject of the next test is C4-HIR cells. The test is described as above. Type of test: cell-based, mouse. The settings on record: 48 h, with MPA; P<0.001. The method, then:
as §1, §2

For another test, the system named is C4-2-HI and 59-HI cells. Briefly: (3H)-thymidine incorporation with 5azadC and RU-486 in 10% FCS. It counts as cell-based, mouse. The settings on record: 5 μM 5azadC, 100 nM RU-486; P<0.001. How it is done:
as §2, with “The cells were incubated with 0.4 μCi of 3H-thymidine (specific activity: 20 Ci/mmol) for 24 h, trypsinized, and harvested in a cell harvester.” left out, “shown.” for “shown. The results are expressed as the proliferation index (cpm 30 experimental group/cpm control; mean±SEM).”
Background: Incorporation of labelled thymidine or its analogues reports DNA synthesis.

Another test deals with breast cancer samples. Nature of the test: Cultured breast cancer slices (chopper), Ki67. It counts as cell-based, human. The settings on record: 10 nM, 48 hs. The text has this:
Sections of formalin-fixed, paraffin-embedded tissue were stained with PR (C-19), or Ki67 (Dako, […]) antibodies using the avidin-biotin-peroxidase complex technique (Vectastain Elite ABC kit; Vector), as described previously (6). Positive cells were counted in 10 high-power fields (HPFs) of each section, using 1000× magnification, and expressed as the mean±SEM of the ratio between the number of positive events and the total cell number. Following the previous experiments shown in PART 1, breast cancer samples obtained after surgery from the Hospital General Pacheco (IRB approved by Hospital and IBYME) were used. Whenever possible, part of the sample is immediately frozen to be used in Western blot studies, other part is fixed to be used in IHC studies and a similar part is kept in medium culture. Slices obtained using a chopper were cultured for 48 hs with DMEM/F12 without phenol red and 10% fetal cal serum with or without MFP 10 nM. Tumor slices were then fixed, paraffin embedded and processed for immunohistochemistry. Cell proliferation was evaluated using Ki67 as described above. The number of slices depends on the sample size.

Another test concerns the target T1, glucocorticoid receptor (Homo sapiens, UniProt P04150).
T1 sequence (P04150 1-777): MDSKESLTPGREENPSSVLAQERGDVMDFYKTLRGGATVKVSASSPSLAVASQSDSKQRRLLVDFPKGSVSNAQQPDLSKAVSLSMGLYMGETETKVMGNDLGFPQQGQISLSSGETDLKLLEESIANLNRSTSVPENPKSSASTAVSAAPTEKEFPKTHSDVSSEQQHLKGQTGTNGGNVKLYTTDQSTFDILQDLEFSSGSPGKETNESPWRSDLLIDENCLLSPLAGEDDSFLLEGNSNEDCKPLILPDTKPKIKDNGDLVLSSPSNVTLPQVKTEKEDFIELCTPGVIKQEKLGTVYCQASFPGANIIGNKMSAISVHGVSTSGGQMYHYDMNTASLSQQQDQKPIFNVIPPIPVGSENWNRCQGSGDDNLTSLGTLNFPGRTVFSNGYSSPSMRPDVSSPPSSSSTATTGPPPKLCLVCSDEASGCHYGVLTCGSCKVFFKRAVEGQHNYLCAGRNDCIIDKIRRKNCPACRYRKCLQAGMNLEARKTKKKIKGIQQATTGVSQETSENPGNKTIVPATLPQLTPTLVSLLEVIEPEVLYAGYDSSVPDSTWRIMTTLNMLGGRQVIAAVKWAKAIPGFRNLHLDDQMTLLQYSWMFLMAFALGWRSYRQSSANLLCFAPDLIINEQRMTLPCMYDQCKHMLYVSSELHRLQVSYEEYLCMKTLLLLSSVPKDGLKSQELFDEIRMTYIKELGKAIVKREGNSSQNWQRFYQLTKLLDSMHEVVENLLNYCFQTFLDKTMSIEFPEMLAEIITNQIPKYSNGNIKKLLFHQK
The settings on record: cited from earlier work.

Test [1] deals with thymic, renal pelvis, colon, pancreatic carcinomas, leiomyosarcoma, histiocytoma. The settings on record: 200 mg/day; cited from earlier work.

Consider `CC#C[C@]1(O)CC[C@H]2[C@@H]3CCC4=CC(=O)CCC4=C3[C@@H](c3ccc(N(C)C)cc3)C[C@@]21C` [RU-486, mifepristone], for which the MPA-induced proliferative effect entry in the test with C4-HI cells and in the test on C4-HIR cells was “abolished” each time. Besides, in the test with C4-2-HI and 59-HI cells, the “cell proliferation, (3H)-thymidine incorporation” value was “did not alter cell proliferation”. Moreover, the Ki67 entry in the test with breast cancer samples (1 PR negative case) was “no inhibition was observed”; in the test with breast cancer samples (1 case PRA/PRB lower than 1) it was “significant inhibition”; with breast cancer samples (2 cases PRA/PRB lower than 1), “no inhibition was observed”; in the test with breast cancer samples (3 cases PRA/PRB high), “significant inhibition of Ki67”. For the same compound, in the test with breast cancer samples (PRA/PRB lower than 1, FIG. 25), the “Ki67, stimulation” value is given as “significant stimulation”. The antiglucocorticoid activity result on glucocorticoid receptor is “antiglucocorticoid effects, albeit at concentrations higher than those needed for its antiprogestin activity”. The clinical outcome in test [1] is “Improvements and pain relief were observed in all patients”.
